Where “and” joins values, the source holds several entries; their conditions need not be identical. Identical values can stand only once. Like-named read-outs stand apart in the source and are kept apart here.
How the values were obtained:
CB2R-Quadruple^TM1,7 [1] = molecular target: T1, CB2R-Quadruple^TM1,7 (Homo sapiens, UniProt P34972, C40S/K279T/K33Q/V36I); assay: [3H]CP55,940 displacement assay, CB2R quadruple mutant; format: binding; settings: CB2R Quadruple TM1,7 mutant; <5 when curve fit not finished
T1 sequence (P34972 whole entry K33Q/V36I/C40S/K279T): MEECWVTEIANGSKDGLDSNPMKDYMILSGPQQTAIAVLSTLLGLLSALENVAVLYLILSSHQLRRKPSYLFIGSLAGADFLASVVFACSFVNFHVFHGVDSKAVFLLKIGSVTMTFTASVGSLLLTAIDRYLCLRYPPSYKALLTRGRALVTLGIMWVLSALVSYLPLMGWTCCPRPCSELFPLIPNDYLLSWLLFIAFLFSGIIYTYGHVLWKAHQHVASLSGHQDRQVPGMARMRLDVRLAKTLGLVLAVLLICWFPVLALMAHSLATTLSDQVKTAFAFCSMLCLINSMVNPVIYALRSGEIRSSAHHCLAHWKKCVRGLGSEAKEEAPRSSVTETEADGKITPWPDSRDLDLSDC

CB1R-L359^6.51V = CB1R-L359^6.51V (Homo sapiens, UniProt P21554, L359V); assay: [35S]GTPγS assay, CB1R L359V mutant; format: biochemical; settings: CB1R L359V; 10 µM agonist
Sequence of CB1R-L359^6.51V (P21554 whole entry L359V): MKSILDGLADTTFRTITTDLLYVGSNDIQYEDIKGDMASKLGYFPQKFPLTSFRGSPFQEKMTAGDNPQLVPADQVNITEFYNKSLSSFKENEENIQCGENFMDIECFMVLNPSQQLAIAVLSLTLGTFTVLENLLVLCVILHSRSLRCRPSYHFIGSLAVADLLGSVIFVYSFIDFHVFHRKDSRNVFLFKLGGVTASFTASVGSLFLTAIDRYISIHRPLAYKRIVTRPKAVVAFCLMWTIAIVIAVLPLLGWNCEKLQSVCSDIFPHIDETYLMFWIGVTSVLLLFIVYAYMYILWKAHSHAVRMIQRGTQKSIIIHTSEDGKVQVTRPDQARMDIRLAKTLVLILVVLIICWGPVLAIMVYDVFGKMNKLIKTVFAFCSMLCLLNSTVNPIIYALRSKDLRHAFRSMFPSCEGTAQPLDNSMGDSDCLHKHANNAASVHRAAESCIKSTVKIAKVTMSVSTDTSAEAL

CB1R I267ECL2L = CB1R I267ECL2L (Homo sapiens, UniProt P21554, I267L); assay: [35S]GTPγS assay, CB1R I267L mutant; format: biochemical; settings: CB1R I267L; 10 µM agonist
Sequence of CB1R I267ECL2L (P21554 whole entry I267L): as the sequence (P21554 whole entry L359V) above, with I267L, V359L counted along it

CB2R-L185^ECL2H [2] = molecular target: T2, CB2R-L185^ECL2H (Homo sapiens, UniProt P34972, L185H); assay: [35S]GTPγS assay, CB2R L185H mutant; format: biochemical; settings: L185H mutant
T2 sequence (P34972 whole entry L185H): as the sequence (P34972 whole entry K33Q/V36I/C40S/K279T) above, with Q33K, I36V, S40C, L185H, T279K counted along it

CB2R-I110^3.29L = CB2R-I110^3.29L (Homo sapiens, UniProt P34972, I110L); assay: [3H]CP55,940 displacement assay, CB2R I110L mutant; format: binding
Sequence of CB2R-I110^3.29L (P34972 whole entry I110L): as the sequence (P34972 whole entry K33Q/V36I/C40S/K279T) above, with Q33K, I36V, S40C, I110L, T279K counted along it

CB1R D266ECL2E = molecular target: T3, CB1R D266ECL2E (Homo sapiens, UniProt P21554, D266E); assay: [35S]GTPγS assay, CB1R D266E mutant; format: biochemical; settings: CB1R D266E; 10 µM agonist
T3 construct: The WT CB1R and CB2R genes were subcloned into vector pcDNA3.1; HA signal peptide (N); expressed in transfected cells; host or cells: HEK293T (transient, membrane homogenates)
T3 sequence (P21554 whole entry D266E): as the sequence (P21554 whole entry L359V) above, with D266E, V359L counted along it

CB1R QuadrupleTM1,7 = assay: [35S]GTPγS assay, CB1R quadruple mutant; format: biochemical, human; settings: CB1R Quadruple TM1,7; 10 µM agonist
CB1R-H270^ECL2L = CB1R-H270^ECL2L (Homo sapiens, UniProt P21554, H270L); assay: [35S]GTPγS assay, CB1R H270L mutant; format: biochemical; settings: CB1R H270L; 10 µM agonist
Sequence of CB1R-H270^ECL2L (P21554 whole entry H270L): as the sequence (P21554 whole entry L359V) above, with H270L, V359L counted along it

CB2R-E181^ECL2D = CB2R-E181^ECL2D (Homo sapiens, UniProt P34972, E181D); assay: [35S]GTPγS assay, CB2R E181D mutant; format: biochemical; settings: E181D mutant
Sequence of CB2R-E181^ECL2D (P34972 whole entry E181D): as the sequence (P34972 whole entry K33Q/V36I/C40S/K279T) above, with Q33K, I36V, S40C, E181D, T279K counted along it

hCB1R WT = hCB1R WT (Homo sapiens, UniProt P21554); assay: [35S]GTPγS G protein activation assay, CB1R WT; format: biochemical; settings: CB1R WT; 10 µM agonist
Sequence of hCB1R WT (P21554 whole entry): as the sequence (P21554 whole entry L359V) above, with V359L counted along it

CB2R-Quadruple^TM1,7 [3] = molecular target: T1, CB2R-Quadruple^TM1,7; assay: [35S]GTPγS assay, CB2R quadruple mutant; format: biochemical; settings: for [35S]GTPγS binding, percentage of WT: QuadrupleTM1,7, individual replicates
Description: In short, transient HEK293T membrane homogenates (10 µg/well) were diluted in assay buffer (50 mM Tris-HCl (pH 7.4), 5 mM MgCl2, 150 mM NaCl, 1 mM EDTA, 0.05% BSA (w/v) and 1 mM DTT, freshly prepared every day) and were pretreated with 10 µg saponin and 1 µM GDP. For endocannabinoid samples, the membranes were additionally pretreated for 30 min with 50 µM PMSF before agonist addition. […] Basal receptor activity was determined in the presence of vehicle only (0.2% DMSO/acetonitrile). […] Filtration was performed, and filter-bound radioactivity was determined as described under [^3H]RO6957022 Competition Association Assays except for using ice-cold 50 mM Tris-HCl (pH 7.4), 5 mM MgCl2 buffer.

CB2R-L185^ECL2H [4] = molecular target: T2, CB2R-L185^ECL2H; assay: [3H]CP55,940 displacement assay, CB2R L185H mutant; format: binding
CB2R-L182^ECL2I = CB2R-L182^ECL2I (Homo sapiens, UniProt P34972, L182I); assay: [35S]GTPγS assay, CB2R L182I mutant; format: biochemical; settings: L182I mutant
Sequence of CB2R-L182^ECL2I (P34972 whole entry L182I): as the sequence (P34972 whole entry K33Q/V36I/C40S/K279T) above, with Q33K, I36V, S40C, L182I, T279K counted along it

CB2R WT [5] = molecular target: T4, CB2R WT (Homo sapiens, UniProt P34972); assay: [3H]CP55,940 displacement assay, CB2R WT; format: binding
T4 sequence (P34972 whole entry): as the sequence (P34972 whole entry K33Q/V36I/C40S/K279T) above, with Q33K, I36V, S40C, T279K counted along it

CB2R WT [6] = molecular target: T4, CB2R WT; assay: [35S]GTPγS G protein activation assay, CB2R WT; format: biochemical; settings: for Emax: CB2R WT, read-out: Emax (%); for [35S]GTPγS binding, percentage of WT / [35S]GTPγS binding, percentage of CP55,940: individual replicates
hCB2R [7] = molecular target: T5, hCB2R (Homo sapiens, UniProt P34972); assay: [3H]RO6957022 competition association assay; format: binding; settings: for percentage specific [3H]RO6957022 binding (competition association): individual replicates
T5 construct: host or cells: CHO-K1 (CHOK1_hCB2bgal, PathHunter), membranes
T5 sequence (P34972 whole entry): as the sequence (P34972 whole entry K33Q/V36I/C40S/K279T) above, with Q33K, I36V, S40C, T279K counted along it

hCB2R [8] = molecular target: T5, hCB2R; assay: [3H]RO6957022 displacement assay; format: binding; settings: for percentage specific [3H]RO6957022 binding (displacement): individual replicates
[9] = at 10 µM compared to WT, read-out: Emax (%)

## CCCCC/C=C\C/C=C\C/C=C\C/C=C\CCCC(=O)OC(CO)CO [2-AG, 2-arachidonoylglycerol]
CB2R-Quadruple^TM1,7 [1]
  Ki: > 10 µM
CB1R-L359^6.51V
  Agonist-mediated activation: 1.4 ± 0.2 fold over its basal
CB1R I267ECL2L
  Agonist-mediated activation: 1.1 ± 0.0 fold over its basal
CB2R-L185^ECL2H [2]; HEK293T membranes
  EC50: 1.26 µM
CB2R-L185^ECL2H [2]; [9]
  Emax: 171 ± 16%
CB2R-I110^3.29L
  Ki: 1.58 µM
CB1R D266ECL2E
  Agonist-mediated activation: 1.5 ± 0.2 fold over its basal
CB1R QuadrupleTM1,7
  Agonist-mediated activation: 1.8 ± 0.1 fold over its basal
CB1R-H270^ECL2L
  Agonist-mediated activation: 1.5 ± 0.1 fold over its basal
CB2R-E181^ECL2D; <5 when curve fit not finished
  EC50: > 10 µM
CB2R-E181^ECL2D; [9]
  Emax: 22 ± 15%
hCB1R WT
  Agonist-mediated activation: 1.3 ± 0.1 fold over its basal
CB2R-Quadruple^TM1,7 [3]; Quadruple TM1,7 mutant, <5 when curve fit not finished
  EC50: > 10 µM
CB2R-Quadruple^TM1,7 [3]; Quadruple TM1,7 mutant, at 10 µM compared to WT, read-out: Emax (%)
  Emax: 6 ± 4%
CB2R-Quadruple^TM1,7 [3]; log [ligand] (M) -5
  [35S]GTPγS binding, percentage of WT: 11.95 percentage of WT and 6.85 percentage of WT and -0.68 percentage of WT
CB2R-Quadruple^TM1,7 [3]; log [ligand] (M) -6
  [35S]GTPγS binding, percentage of WT: 26.61 percentage of WT and 0.18 percentage of WT
CB2R-Quadruple^TM1,7 [3]; log [ligand] (M) -7
  [35S]GTPγS binding, percentage of WT: -4.94 percentage of WT and -35.40 percentage of WT and 2.05 percentage of WT
CB2R-Quadruple^TM1,7 [3]; log [ligand] (M) -8
  [35S]GTPγS binding, percentage of WT: -0.27 percentage of WT and -23.76 percentage of WT and 1.32 percentage of WT
CB2R-L185^ECL2H [4]
  Ki: 0.398 µM
CB2R-L182^ECL2I; <5 when curve fit not finished
  EC50: > 10 µM
CB2R-L182^ECL2I; [9]
  Emax: 15 ± 9%
CB2R WT [5]
  Ki: 1.58 µM
CB2R WT [6]; maximum effect at 10 µM compared to WT (Suppl. Table 6)
  Emax: 85 ± 2%
CB2R WT [6]; maximum effect compared to CP55,940
  Emax: 93 ± 22%
CB2R WT [6]; log [ligand] (M) -5
  [35S]GTPγS binding, percentage of WT: 81.88 percentage of WT and 83.76 percentage of WT and 88.90 percentage of WT
CB2R WT [6]; log [ligand] (M) -6
  [35S]GTPγS binding, percentage of WT: 30.38 percentage of WT and 55.12 percentage of WT and 21.88 percentage of WT
CB2R WT [6]; log [ligand] (M) -7
  [35S]GTPγS binding, percentage of WT: 23.64 percentage of WT and 24.41 percentage of WT and 16.38 percentage of WT
CB2R WT [6]; log [ligand] (M) -8
  [35S]GTPγS binding, percentage of WT: 45.75 percentage of WT and 38.50 percentage of WT and 15.70 percentage of WT
CB2R WT [6]; [35S]GTPγS, HEK293T membranes transiently expressing CB2R WT
  EC50: 1.26 µM
CB2R WT [6]; log [agonist] (M) -5
  [35S]GTPγS binding, percentage of CP55,940: 64.32% and 135.41% and 79.23%
CB2R WT [6]; log [agonist] (M) -6
  [35S]GTPγS binding, percentage of CP55,940: 23.86% and 33.33% and 42.53%
CB2R WT [6]; log [agonist] (M) -7
  [35S]GTPγS binding, percentage of CP55,940: 18.57% and 24.95% and 4.53%
CB2R WT [6]; log [agonist] (M) -8
  [35S]GTPγS binding, percentage of CP55,940: 35.93% and 23.91% and 2.02%
hCB2R [7]; KD = koff/kon, read-out: Kinetic KD
  Kd: 0.0427 µM
hCB2R [7]; Time 1 min
  percentage specific [3H]RO6957022 binding (competition association): 2.75% and 8.28% and -0.30%
hCB2R [7]; Time 3 min
  percentage specific [3H]RO6957022 binding (competition association): 14.15% and 22.81% and 17.03%
hCB2R [7]; Time 5 min
  percentage specific [3H]RO6957022 binding (competition association): 22.93% and 20.44% and 8.60%
hCB2R [7]; Time 7 min
  percentage specific [3H]RO6957022 binding (competition association): 18.57% and 22.56% and 19.64%
hCB2R [7]; Time 10 min
  percentage specific [3H]RO6957022 binding (competition association): 21.07% and 23.19% and 30.43%
hCB2R [7]; Time 20 min
  percentage specific [3H]RO6957022 binding (competition association): 26.97% and 35.00% and 33.48%
hCB2R [7]; Time 30 min
  percentage specific [3H]RO6957022 binding (competition association): 25.36% and 45.58% and 22.89%
hCB2R [7]; Time 45 min
  percentage specific [3H]RO6957022 binding (competition association): 33.64% and 44.13% and 30.07%
hCB2R [7]; Time 60 min
  percentage specific [3H]RO6957022 binding (competition association): 37.87% and 46.21% and 40.22%
hCB2R [7]; Time 90 min
  percentage specific [3H]RO6957022 binding (competition association): 43.62% and 64.89% and 33.23%
hCB2R [7]; Time 120 min
  percentage specific [3H]RO6957022 binding (competition association): 44.54% and 60.70% and 44.33%
hCB2R [7]; at 1 µM agonist, ET = 1/(kon ∙ 1 × 10-6)
  ET (engagement time): 18.8 ± 3.61 s
hCB2R [8]; CHOK1_hCB2bgal membranes, 10 °C
  Ki: 0.0973 µM
hCB2R [8]; log [agonist] (M) -5
  percentage specific [3H]RO6957022 binding (displacement): -4.06% and 1.99% and 1.24%
hCB2R [8]; log [agonist] (M) -6
  percentage specific [3H]RO6957022 binding (displacement): 9.18% and 29.61% and 23.88%
hCB2R [8]; log [agonist] (M) -7
  percentage specific [3H]RO6957022 binding (displacement): 74.28% and 92.58% and 77.97%
hCB2R [8]; log [agonist] (M) -8
  percentage specific [3H]RO6957022 binding (displacement): 95.23% and 106.70% and 113.70%

— article PMC10017709, “Structural basis of selective cannabinoid CB2 receptor activation” (Nature Communications, 2023)
